Patent US20110144029A1, “Model Systems and Materials for the Study and Treatment of Neurodegenerative Diseases” (BOARD OF REGENTS, THE UNIVERSITY OF TEXAS SYSTEM, priority 2009, published 2011)
“Also recorded” adds a separate entry of the source. Where a SMILES comes first, the peptide text is derived from it. [ ]: non-standard residue; d: D form.

Tests used:
[1] = system: cerebellar granule neurons; experiment: Live/Dead (Red/Green) viability assay in cultured cerebellar granule neurons; assay type: cell-based, rat; details: 24 h peptide treatment, HK medium
Procedure: Neuronal cultures were switched to serum-free medium T-peptide, K-peptide, Core-peptide, V-peptide. VV-peptide, and T (L)-peptide. All peptides were used at 25 μM concentration. Phase contrast micrographs show appearance of the cultures after 24 h of peptide treatment. The Live/Dead viability assay was also performed. Nuclei of dead cells are stained red whereas cytoplasm of living cells are stained green. In the case of sick and dying cells, green staining is condensed;
(§1) Cerebellar granule neurons were switched to serum-free medium containing various concentrations of T-peptide, K-peptide, Core-peptide, V-peptide, VV-peptide, and T (L)-peptide. Cell viability was measured using two independent methods 24 h after peptide treatment and results are graphed. * indicates p<0.05 compared with control cells that were treated with HK: (4A) Results from Red/Green viability assay, (4B) Results from MTT assay;
Culturing and treatment of neurons: Cerebellar granule neurons were cultured from 7-8 day old rats as previously described. The neurons were plated in 24-well with poly-L-lysine coated glass coverslips at a density of ˜1 million cells/well in Basal Eagle's Medium with Earle's salts (BME) supplemented with 10% FCS, 25 mM KCl, 2 mM glutamine and […] gentamicin. To prevent mitosis of glial cells, cytosine arabinofuranoside ([…]) was added to culture 16-20 hrs after plating. Neuronal cultures were treated with peptides 6-7 days after plating. For treatment, the cultures were switched to serum-free medium containing 25 mM KCl (referred to as high potassium or HK medium). Although serum is required for proper maturation, after 5 days in culture, the neurons survive normally in the absence of serum provided depolarizing levels of KCl is added.
Cell viability quantification: Cell viability was quantified using the Live/Dead assays with a commercially available kit (Invitrogen). This is a two-color fluorescence assay utilizing two cell-permeable compounds, calcein acetoxymethyl (calcein AM) and ethidium homodimer-1 (EthD-1). Live cells have intracellular esterases that convert non-fluorescent calcein AM to the intensely green fluorescent calcein, which is retained within the cytoplasm of cells. Because dead cells have damaged membranes, EthD-1 enters and is fluorescent when bound to nucleic acids. EthD-1 stains the nuclei of damaged or dead cells. As recommended by the manufacturer, cells plated in wells with cover-slips were incubated in Live/Dead reagent (1 uM calcein AM and 4 uM EthD-1) for 30 min, and then mounted on slides. Cell viability was also analyzed using the MTT [3-(4,5-Dimethylthiazol-2-yl)-2,5-diphenyltetrazolium bromide] assay based on the evaluation of mitochondrial function. MTT assays were performed as previously described. Briefly, MTT (5 mg/ml in culture medium) was added to the culture medium and the cells incubated at 37° C. for 1 h. The assay was stopped by adding lysis buffer [20% sodium dodecyl sulfate (SDS) in 50% N,N-dimethylformamide, pH 4.7]. Absorbance was measured spectrophotometrically at 570 nm after an overnight incubation at room temperature.

[2] = system: cerebellar granule neurons; experiment: MTT assay in cerebellar granule neurons; assay type: cell-based, rat; details: 24 h peptide treatment
Procedure: as §1
Culturing and treatment of neurons: Cerebellar granule neurons were cultured from 7-8 day old rats as previously described. The neurons were plated in 24-well with poly-L-lysine coated glass coverslips at a density of ˜1 million cells/well in Basal Eagle's Medium with Earle's salts (BME) supplemented with 10% FCS, 25 mM KCl, 2 mM glutamine and […] gentamicin. […]
Cell viability quantification: Cell viability was quantified using the Live/Dead assays with a commercially available kit (Invitrogen). This is a two-color fluorescence assay utilizing two cell-permeable compounds, calcein acetoxymethyl (calcein AM) and ethidium homodimer-1 (EthD-1). […] Cell viability was also analyzed using the MTT [3-(4,5-Dimethylthiazol-2-yl)-2,5-diphenyltetrazolium bromide] assay based on the evaluation of mitochondrial function. […] Absorbance was measured spectrophotometrically at 570 nm after an overnight incubation at room temperature.

[3] = Polymerization kinetics by Thioflavin S (ThS) fluorescence in the presence of heparin; assay type: physicochemical; details: for A (first phase / growth curve): ST-peptide according to Eqn. [2]
Procedure: Aggregation kinetics of T-peptide (filled triangles), V-peptide (filled diamonds), F-peptide (X), Core peptide (open triangles), VV-peptide (open diamonds) and K-peptide (filled circles). […] Solid lines represent fitted values;
Kinetic analysis: Polymerization kinetics were measured by monitoring the increase in Thioflavin S (ThS) fluorescence at 490 nm (440 nm excitation). Slit widths were 15 and 20 nm respectively for excitation and emission. All measurements were carried out at 21° C. with a Perkin Elmer LS50B spectrofluorimeter using a 75 μL quartz cell. Data points were collected at 6 s intervals over the course of the experiment (60 min). In order to initiate polymerization a freshly filtered stock solution was diluted to 10 μM in 200 μL of Buffer A containing 33 μM heparin (Sigma-Aldrich; 3,000 MW) and 100 μM Thioflavin S (ThS). Kinetics data, corrected for the blank, were fit using a non-linear least squares algorithm to a Gompertz-like growth curve {{260 Necula, M. 2004}} (Eqn.)
where y is defined as the fluorescence signal at time t, ti corresponds to the inflection point of the curve, or the time of maximum growth rate, A is the maximum fluorescence observed for a given sample, and b=1/k, where k is the rate constant of aggregation, in units of s^−1. Lag-times were calculated as ti−b. The pre-growth curve exponential, e^(−k′t) was inserted to take into account the slow decrease in fluorescent intensity resulting from ThS bleaching, quenching and gravitational precipitation of the amyloid-ThS complex. Standard errors in fitted parameters were estimated assuming a 10% error in the sum of the squares.

[4] = previously shown [19, 20]; cited from earlier work
[5] = Transmission electron microscopy (TEM) of peptide aggregates; assay type: physicochemical; details: 100 μM peptide in Buffer A, uranyl acetate stain
Procedure: All peptides were prepared at 100 μM in Buffer A and stained with uranyl acetate;
Transmission Electron Microscopy (TEM): Filtered stock peptide solutions were diluted to 100 μM in 5 mM MOPS containing 0.1% NaN3, 0.15 M NaCl, pH 7.2 (Buffer A) and were incubated at room temperature overnight. Samples were loaded onto carbon-coated Formvar copper grids (200 mesh) and stained with 2% wt/wt uranyl acetate. A JEOL 1200 EX scope interfaced to a digital camera was used to visualize samples.

culture = experiment: Neurotoxicity of non-tau related aggregating peptides in culture; assay type: cell-based; details: FIG. 13
Text: FIG. 13 is an image of the non-tau related aggregating peptides are not neurotoxic.

CC(=O)N[C@@H](CCCNC(=N)N)C(=O)N[C@@H](CCCNC(=N)N)C(=O)N[C@@H](CCCNC(=N)N)C(=O)N[C@@H](CCCNC(=N)N)C(=O)N[C@@H](CCCNC(=N)N)C(=O)N[C@@H](CCCNC(=N)N)C(=O)N[C@@H](CCCNC(=N)N)C(=O)N[C@@H](CCCNC(=N)N)C(=O)N[C@@H](CCCNC(=N)N)C(N)=O [Ac—R9—NH2, reference compound]
neurotoxicity / effect on neuronal survival [1]: no effect on neuronal survival

CC[C@@H](C)[C@@H](NC(=O)[C@@H](CCC(N)=O)NC(=O)[C@H](NC(C)=O)C(C)C)C(=O)N[C@@H](C(=O)N[C@H](Cc1ccc(O)cc1)C(=O)N[C@H](CCCCN)C(N)=O)C(C)C [Core-peptide, Ac-vqivyk-NH2] (Ac-[dV][dQ][dI][dV][dY][dK]-NH2)
neurotoxicity / effect on neuronal survival [1]: not toxic
MTT assay result (mitochondrial function, words) [2]: mitochondrial dysfunction

CC[C@@H](C)[C@@H](NC(=O)[C@@H](CCC(N)=O)NC(=O)[C@H](NC(C)=O)C(C)C)C(=O)N[C@@H](C(=O)N[C@H](CCCCN)C(=O)N[C@H](CCCCN)C(=O)N[C@@H](CCCNC(=N)N)C(=O)N[C@@H](CCCNC(=N)N)C(=O)N[C@@H](CCCNC(=N)N)C(=O)N[C@@H](CCCNC(=N)N)C(=O)N[C@@H](CCCNC(=N)N)C(=O)N[C@@H](CCCNC(=N)N)C(=O)N[C@@H](CCCNC(=N)N)C(=O)N[C@@H](CCCNC(=N)N)C(=O)N[C@@H](CCCNC(=N)N)C(N)=O)C(C)C [K-peptide, Ac-vqivkk-R9—NH2]
neurotoxicity / effect on neuronal survival [1]: neither K-peptide nor VV-peptide reduced neuronal survival

CC(=O)N[C@@H](C(=O)N[C@H](CCC(N)=O)C(=O)N[C@@H](C(=O)N[C@@H](C(=O)N[C@H](Cc1ccc(O)cc1)C(=O)N[C@H](CCCCN)C(=O)N[C@@H](CCCNC(=N)N)C(=O)N[C@@H](CCCNC(=N)N)C(=O)N[C@@H](CCCNC(=N)N)C(=O)N[C@@H](CCCNC(=N)N)C(=O)N[C@@H](CCCNC(=N)N)C(=O)N[C@@H](CCCNC(=N)N)C(=O)N[C@@H](CCCNC(=N)N)C(=O)N[C@@H](CCCNC(=N)N)C(=O)N[C@@H](CCCNC(=N)N)C(N)=O)C(C)C)C(C)C)C(C)C [V-peptide, Ac-vqvvyk-R9—NH2]
neurotoxicity / effect on neuronal survival [1]: moderate level of cell death

CC(=O)N[C@@H](C(=O)N[C@H](CCC(N)=O)C(=O)N[C@@H](C(=O)N[C@@H](C(=O)N[C@@H](C(=O)N[C@H](CCCCN)C(=O)N[C@@H](CCCNC(=N)N)C(=O)N[C@@H](CCCNC(=N)N)C(=O)N[C@@H](CCCNC(=N)N)C(=O)N[C@@H](CCCNC(=N)N)C(=O)N[C@@H](CCCNC(=N)N)C(=O)N[C@@H](CCCNC(=N)N)C(=O)N[C@@H](CCCNC(=N)N)C(=O)N[C@@H](CCCNC(=N)N)C(=O)N[C@@H](CCCNC(=N)N)C(N)=O)C(C)C)C(C)C)C(C)C)C(C)C [VV-peptide, Ac-vqvvvkR9—NH2]
neurotoxicity / effect on neuronal survival [1]: neither K-peptide nor VV-peptide reduced neuronal survival

Ac-VQIVFK-R9—NH2 (Ac-VQIVFKRRRRRRRRR-NH2) [F-peptide]
A (maximum fluorescence, fitted kinetic parameter) ([3]; 10 μM peptide, 33 μM heparin, 100 μM ThS, Buffer A pH 7.2, 21° C., NA = no aggregation observed by ThS fluorescence, ±10% error): 5.5
self-aggregation in vitro ([3]; ThS fluorescence, heparin, 10 μM concentration): aggregate in a fashion similar to the Core peptide; also recorded: capable of self-aggregation in vitro
neurotoxicity / effect on neuronal survival [1]: induces toxicity

Ac-^306VQIVYK^311-NH2 [AcPHF6]
critical concentration above which peptide polymerizes into amyloid fibrils [4]: about 2 μM

SQIVYA-R9 (SQIVYARRRRRRRRR) [SQ-peptide, de novo non-tau aggregating peptide]
A (first phase / growth curve) ([3]; ThS fluorescence): 8.8
morphology of aggregates [5]: irregular non-uniform filaments similar to V-peptide
neurotoxicity in culture (culture): neither of these two peptides displayed neurotoxicity

STVIIE-R9 (STVIIERRRRRRRRR) [ST-peptide, non-tau aggregating peptide previously described by Pastor et al, reference compound]
lag time ([3]; ThS fluorescence): ~3000 s
A (first phase / growth curve) ([3]; ThS fluorescence): 4.9
A′ (second period of more rapid aggregation) ([3]; according to Eqn. [2]): 6.3
diameter of fibrils / filaments / amyloid bodies / fibers ([5]; overnight): 10-40 nm
morphology of aggregates [5]: amyloid sheets which appear to roll into irregular fibers
neurotoxicity in culture (culture): neither of these two peptides displayed neurotoxicity
